Values joined by “and” are separate entries in the source; they are usually repeats but may differ in a detail not shown here. Equal values may be shown once. Inconclusive results and toxic doses are left out.
Tested on: L1210 leukemia ip in BDF1 mice, survival T/C
Assay: NCI In Vivo Anticancer Drug Screen. Data for tumor model L1210 Leukemia (intraperitoneal) in B6D2F1 (BDF1) mice
Details: endpoint: mean survival time, higher = longer survival
Procedure, shortened: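 Each compound was tested against a transplantable tumor grown in mice. The endpoint was survival, with treated animals benchmarked against vehicle controls as a simple ratio.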

[1] = dose: 75.0 mg/kg/injection, schedule: Q01DX001 (ip), vehicle: carboxymethylcellulose (CMC)
[2] = dose: 100.0 mg/kg/injection, schedule: Q04DX002 (ip), vehicle: Klucel (hydroxypropylcellulose) (HPC)
[3] = dose: 200.0 mg/kg/injection, schedule: Q04DX002 (ip), vehicle: Klucel (hydroxypropylcellulose) (HPC)
[4] = dose: 400.0 mg/kg/injection, schedule: Q04DX002 (ip), vehicle: Klucel (hydroxypropylcellulose) (HPC)
[5] = dose: 200.0 mg/kg/injection, schedule: Q01DX009 (ip), vehicle: saline with Tween-80
[6] = dose: 100.0 mg/kg/injection, schedule: Q01DX009 (ip), vehicle: Klucel (hydroxypropylcellulose) (HPC)
[7] = dose: 100.0 mg/kg/injection, schedule: Q04DX003 (ip), vehicle: Klucel (hydroxypropylcellulose) (HPC)
[8] = dose: 200.0 mg/kg/injection, schedule: Q01DX009 (ip), vehicle: Klucel (hydroxypropylcellulose) (HPC)
[9] = dose: 200.0 mg/kg/injection, schedule: Q04DX003 (ip), vehicle: Klucel (hydroxypropylcellulose) (HPC)
[10] = dose: 400.0 mg/kg/injection, schedule: Q04DX003 (ip), vehicle: Klucel (hydroxypropylcellulose) (HPC)
[11] = dose: 100.0 mg/kg/injection, schedule: Q04DX003 (ip), vehicle: saline
[12] = dose: 200.0 mg/kg/injection, schedule: Q04DX003 (ip), vehicle: saline
[13] = dose: 400.0 mg/kg/injection, schedule: Q04DX003 (ip), vehicle: saline
[14] = dose: 100.0 mg/kg/injection, schedule: Q01DX009 (ip), vehicle: saline
[15] = dose: 200.0 mg/kg/injection, schedule: Q01DX009 (ip), vehicle: saline
[16] = dose: 100.0 mg/kg/injection, schedule: Q01DX001 (ip), vehicle: Klucel (hydroxypropylcellulose) (HPC)
[17] = dose: 200.0 mg/kg/injection, schedule: Q01DX001 (ip), vehicle: Klucel (hydroxypropylcellulose) (HPC)
[18] = dose: 400.0 mg/kg/injection, schedule: Q01DX001 (ip), vehicle: Klucel (hydroxypropylcellulose) (HPC)
[19] = dose: 50.0 mg/kg/injection, schedule: Q01DX009 (ip), vehicle: saline

O=C1CC2CCCC(C1)S2
T/C [1]: 107 % of control
T/C [2]: 86 % of control
T/C (dose: 150.0 mg/kg/injection, schedule: Q01DX001 (ip), vehicle: carboxymethylcellulose (CMC)): 109 % of control
T/C [3]: 100 % of control
T/C (dose: 300.0 mg/kg/injection, schedule: Q01DX001 (ip), vehicle: carboxymethylcellulose (CMC)): 102 % of control
T/C [4]: 86 % of control

C[C@@H]1CN(C(=O)CCOS(C)(=O)=O)[C@@H](C)CN1C(=O)CCOS(C)(=O)=O
T/C (dose: 2.5 mg/kg/injection, schedule: Q01DX Z (ip), vehicle: carboxymethylcellulose (CMC)): 112 % of control
T/C (dose: 3.7 mg/kg/injection, schedule: Q01DX Z (ip), vehicle: carboxymethylcellulose (CMC)): 102 % of control
T/C (dose: 5.6 mg/kg/injection, schedule: Q01DX Z (ip), vehicle: carboxymethylcellulose (CMC)): 115 % of control
T/C (dose: 8.4 mg/kg/injection, schedule: Q01DX Z (ip), vehicle: carboxymethylcellulose (CMC)): 103 % of control
T/C (dose: 29.5 mg/kg/injection, schedule: Q01DX Z (ip), vehicle: carboxymethylcellulose (CMC)): 116 % of control
T/C (dose: 60.0 mg/kg/injection, schedule: Q01DX Z (ip), vehicle: carboxymethylcellulose (CMC)): 166 % of control
T/C (dose: 198.0 mg/kg/injection, schedule: Q01DX Z (ip), vehicle: carboxymethylcellulose (CMC)): 117 % of control
T/C (dose: 200.0 mg/kg/injection, schedule: Q01DX Z (ip), vehicle: carboxymethylcellulose (CMC)): 119 % of control
T/C (dose: 201.0 mg/kg/injection, schedule: Q01DX Z (ip), vehicle: carboxymethylcellulose (CMC)): 91 % of control
T/C (dose: 300.0 mg/kg/injection, schedule: Q01DX Z (ip), vehicle: carboxymethylcellulose (CMC)): 121 % of control and 90 % of control
T/C (dose: 302.0 mg/kg/injection, schedule: Q01DX Z (ip), vehicle: carboxymethylcellulose (CMC)): 95 % of control

CCOC(=O)c1cc(Cl)cc(Cl)c1N=NN(C)C
T/C (dose: 50.0 mg/kg/injection, schedule: Q01DX009 (ip), vehicle: saline with Tween-80): 102 % of control
T/C [5]: 102 % of control

COC1=C(NC2CCCCC2)C(=O)C(OC)=C(NC2CCCCC2)C1=O
T/C (dose: 50.0 mg/kg/injection, schedule: Q01DX001 (ip), vehicle: carboxymethylcellulose (CMC)): 103 % of control
T/C (dose: 100.0 mg/kg/injection, schedule: Q01DX001 (ip), vehicle: carboxymethylcellulose (CMC)): 101 % of control
T/C [6]: 86 % of control
T/C [7]: 96 % of control
T/C (dose: 200.0 mg/kg/injection, schedule: Q01DX001 (ip), vehicle: carboxymethylcellulose (CMC)): 101 % of control
T/C [8]: 98 % of control
T/C [9]: 94 % of control
T/C (dose: 400.0 mg/kg/injection, schedule: Q01DX001 (ip), vehicle: carboxymethylcellulose (CMC)): 103 % of control
T/C (dose: 400.0 mg/kg/injection, schedule: Q01DX009 (ip), vehicle: Klucel (hydroxypropylcellulose) (HPC)): 91 % of control
T/C [10]: 94 % of control

C=C(C)C(=Nc1ccc(Cl)c(Cl)c1)N(C)C
T/C (dose: 55.0 mg/kg/injection, schedule: Q01DX Z (ip), vehicle: methylcellulose (MC)): 98 % of control
T/C (dose: 83.0 mg/kg/injection, schedule: Q01DX Z (ip), vehicle: methylcellulose (MC)): 93 % of control
T/C (dose: 125.0 mg/kg/injection, schedule: Q01DX Z (ip), vehicle: methylcellulose (MC)): 93 % of control

O=C1OCCN1CCO
T/C [11]: 97 % of control
T/C [12]: 102 % of control
T/C [13]: 108 % of control

CCOC(=O)/C(C#N)=C/c1ccc2n1Cc1cc(OC)c(OC)cc1N(C(C)=O)C2
T/C (dose: 25.0 mg/kg/injection, schedule: Q04DX002 (ip), vehicle: Klucel (hydroxypropylcellulose) (HPC)): 95 % of control
T/C (dose: 50.0 mg/kg/injection, schedule: Q04DX002 (ip), vehicle: Klucel (hydroxypropylcellulose) (HPC)): 93 % of control
T/C [2]: 87 % of control

OC1CCCSC1 (stereo not drawn)
T/C [14]: 102 % of control
T/C [11]: 96 % of control
T/C [15]: 98 % of control
T/C [12]: 100 % of control
T/C (dose: 400.0 mg/kg/injection, schedule: Q01DX009 (ip), vehicle: saline): 98 % of control
T/C [13]: 89 % of control

CCOP(=O)(OCC)N1CC1c1ccccc1 (stereo not drawn)
T/C [1]: 114 % of control

CC(C)/C=N/N=C(N)N
T/C (dose: 120.0 mg/kg/injection, schedule: Q01DX Z (oral), vehicle: saline): 113 % of control
T/C (dose: 240.0 mg/kg/injection, schedule: Q01DX Z (oral), vehicle: saline): 104 % of control

O=C1C(Cl)=C(Cl)C2(Cl)C1(Cl)C1(Cl)C(=O)C(Cl)=C(Cl)C12Cl (stereo not drawn)
T/C [16]: 99 % of control
T/C [7]: 104 % of control
T/C [17]: 97 % of control
T/C [9]: 98 % of control
T/C [18]: 94 % of control
T/C [10]: 96 % of control

Cc1cc(N2CCC(N3CCCC3)CC2)nc(/N=C(\N)Nc2ccc(Cl)c(Cl)c2)n1
T/C (dose: 12.0 mg/kg/injection, schedule: Q01DX009 (ip), vehicle: saline): 97 % of control
T/C (dose: 25.0 mg/kg/injection, schedule: Q01DX009 (ip), vehicle: saline): 106 % of control
T/C [19]: 98 % of control

CCCCCCCCC(=O)N1CCCC(C)C1 (stereo not drawn)
T/C (dose: 100.0 mg/kg/injection, schedule: Q04DX002 (ip), vehicle: saline): 104 % of control
T/C (dose: 200.0 mg/kg/injection, schedule: Q04DX002 (ip), vehicle: saline): 117 % of control
T/C (dose: 400.0 mg/kg/injection, schedule: Q04DX002 (ip), vehicle: saline): 101 % of control

CC1=C2/C=c3\[nH]/c(c(CCC(=O)NCCN)c3C)=C\c3[nH]c(c(C)c3CCC(=O)NCCN)CC3NC(CC(=N2)C1=NCCN)C(C)=C3NCCN (stereo not drawn)
T/C (dose: 37.5 mg/kg/injection, schedule: Q01DX001 (ip), vehicle: saline): 97 % of control
T/C (dose: 75.0 mg/kg/injection, schedule: Q01DX001 (ip), vehicle: saline): 97 % of control and 111 % of control
T/C (dose: 150.0 mg/kg/injection, schedule: Q01DX001 (ip), vehicle: saline): 106 % of control and 120 % of control
T/C (dose: 300.0 mg/kg/injection, schedule: Q01DX001 (ip), vehicle: saline): 102 % of control

CCCCCCCCCCCC[N+](C)(C)C(C)Cc1ccccc1 (stereo not drawn)
T/C (dose: 10.0 mg/kg/injection, schedule: Q01DX001 (ip), vehicle: saline): 98 % of control
T/C (dose: 20.0 mg/kg/injection, schedule: Q01DX001 (ip), vehicle: saline): 98 % of control

O=C(O)/C=C/C(=O)Nc1ccc(Cl)cc1C(=O)c1ccccc1
T/C [6]: 101 % of control
T/C [8]: 98 % of control

CN(C)C1(C)CCC2C3CCC4=CC(=O)CCC4(C)C3CCC21C (stereo not drawn)
T/C (dose: 50.0 mg/kg/injection, schedule: Q01DX001 (sc), vehicle: steriod suspending solution): 98 % of control
T/C (dose: 100.0 mg/kg/injection, schedule: Q01DX001 (sc), vehicle: steriod suspending solution): 98 % of control
T/C (dose: 200.0 mg/kg/injection, schedule: Q01DX001 (sc), vehicle: steriod suspending solution): 95 % of control
T/C (dose: 400.0 mg/kg/injection, schedule: Q01DX001 (sc), vehicle: steriod suspending solution): 98 % of control

COc1ccc(/C=N\NC(=O)CCCCC(=O)N/N=C\c2ccc(OC)cc2)cc1
T/C [16]: 106 % of control
T/C [17]: 98 % of control
T/C [18]: 91 % of control

O=C1c2cccc3cccc(c23)C1(Br)C(Br)c1ccccc1 (stereo not drawn)
T/C (dose: 100.0 mg/kg/injection, schedule: Q04DX002 (ip), vehicle: saline with Tween-80): 97 % of control
T/C (dose: 200.0 mg/kg/injection, schedule: Q04DX002 (ip), vehicle: saline with Tween-80): 97 % of control
T/C (dose: 400.0 mg/kg/injection, schedule: Q04DX002 (ip), vehicle: saline with Tween-80): 97 % of control

O=C(O)/C(=C\c1ccccc1[N+](=O)[O-])c1ccccc1Cl
T/C (dose: 100.0 mg/kg/injection, schedule: Q01DX009 (ip), vehicle: saline with Tween-80): 106 % of control
T/C [5]: 98 % of control
T/C (dose: 400.0 mg/kg/injection, schedule: Q01DX009 (ip), vehicle: saline with Tween-80): 95 % of control

O=C(c1ccc(N2CC=C(c3ccccc3)CC2)cc1)C1CC1
T/C [2]: 92 % of control
T/C [3]: 95 % of control
T/C [4]: 89 % of control

CCN(CC)CC(=O)NC(CCN(C)C)(c1cccc2ccccc12)C(C)C (stereo not drawn)
T/C [19]: 94 % of control
T/C [14]: 112 % of control
T/C [11]: 105 % of control
T/C [15]: 100 % of control
T/C [12]: 105 % of control
